# In ChEMBL document CHEMBL3621073, “Bile acid amphiphiles with tunable head groups as highly selective antitubercular agents” (Medchemcomm, 2014):
# Columns and labels:
# Escherichia coli = test: Antibacterial activity against Escherichia coli MTCC 443 after 12 hrs by microplate reader assay; assay type: functional; settings: MTCC 443, 12 h
# [1] = test system: Mycolicibacterium smegmatis; test: Antimycobacterial activity against Mycobacterium smegmatis str. MC2 155 after 2 days by inverted microscopic analysis; assay type: functional; settings: str. MC2 155, 48 h
# Staphylococcus aureus = test: Antibacterial activity against Staphylococcus aureus MTCC 737 after 12 hrs by microplate reader assay; assay type: functional; settings: MTCC 737, 12 h
# A549 [2] = test: Cytotoxicity against human A549 cells after 48 hrs by MTT assay; assay type: cell-based; settings: A549, 48 h
# [3] = Therapeutic index, ratio of MHC50 for chicken RBC to MIC99 for Mycobacterium tuberculosis H37Rv; settings: chicken red blood cells, read-out: TI
# [4] = Therapeutic index, ratio of MHC50 for sheep RBC to MIC99 for Mycobacterium tuberculosis H37Rv; settings: sheep red blood cells, read-out: TI
# [5] = test system: Mycobacterium tuberculosis; test: Antimycobacterial activity against Mycobacterium tuberculosis H37Rv after 14 days by inverted microscopic analysis; assay type: functional; settings: 336 h
# THP-1 = test: Cytotoxicity against human THP1 cells after 48 hrs by MTT assay; assay type: cell-based; settings: THP-1, 48 h
# A549 [6] = test: Cytotoxicity against human A549 cells assessed as effect on cell cycle phase at 100 uM by propidium iodide staining-based flow cytometry; settings: a549, 100 µM
SMILES,MIC99 (Escherichia coli) [µM],MIC99 [1] [µM],MIC99 (Staphylococcus aureus) [µM],IC50 (A549 [2]) [µM],selectivity ratio [3],selectivity ratio [4],MIC99 [5] [µM],IC50 (THP-1) [µM],Activity (A549 [6])
COC(=O)CC[C@@H](C)[C@H]1CC[C@H]2[C@@H]3[C@H](OC(=O)C[n+]4ccc(N(C)C)cc4)C[C@@H]4C[C@H](OC(=O)C[n+]5ccc(N(C)C)cc5)CC[C@]4(C)[C@H]3CC[C@]12C,128,0.78,128,154,> 320,> 320,3.12,137,–
COC(=O)CC[C@@H](C)[C@H]1CC[C@H]2[C@@H]3CC[C@@H]4C[C@H](OC(=O)C[N+](C)(C)C)CC[C@]4(C)[C@H]3CC[C@]12C,> 512,6.25,> 512,69,> 20,> 20,50,62,–
COC(=O)CC[C@@H](C)[C@H]1CC[C@H]2[C@@H]3CC[C@@H]4C[C@H](OC(=O)C[N+]5(C)CCCCC5)CC[C@]4(C)[C@H]3CC[C@]12C,> 512,6.25,> 512,42,> 20,> 20,50,77,–
COC(=O)CC[C@@H](C)[C@H]1CC[C@H]2[C@@H]3[C@H](OC(=O)C[n+]4ccccc4)C[C@@H]4C[C@H](OC(=O)C[n+]5ccccc5)CC[C@]4(C)[C@H]3CC[C@]12C,128,3.12,256,168,> 40,> 40,25,> 200,–
COC(=O)CC[C@@H](C)[C@H]1CC[C@H]2[C@@H]3[C@H](OC(=O)C[N+](C)(C)C)C[C@@H]4C[C@H](OC(=O)C[N+](C)(C)C)CC[C@]4(C)[C@H]3C[C@H](OC(=O)C[N+](C)(C)C)[C@]12C.[Cl-].[Cl-].[Cl-],> 512,12.5,> 512,> 200,> 20,> 20,50,80,Non-toxic
NNC(=O)c1ccncc1 [ISONIAZID],–,> 50,–,–,–,–,0.78,–,–
COC(=O)CC[C@@H](C)[C@H]1CC[C@H]2[C@@H]3CC[C@@H]4C[C@H](OC(=O)C[n+]5ccc(N(C)C)cc5)CC[C@]4(C)[C@H]3C[C@H](OC(=O)C[n+]3ccc(N(C)C)cc3)[C@]12C,64,0.78,64,50,> 213,> 213,4.68,63,–
COC(=O)CC[C@@H](C)[C@H]1CC[C@H]2[C@@H]3CC[C@@H]4C[C@H](OC(=O)C[n+]5ccc(N(C)C)cc5)CC[C@]4(C)[C@H]3CC[C@]12C,> 512,12.5,> 512,112,> 20,> 20,50,86,–
COC(=O)CC[C@@H](C)[C@H]1CC[C@H]2[C@@H]3[C@H](OC(=O)C[N+]4(C)CCCCC4)C[C@@H]4C[C@H](OC(=O)C[N+]5(C)CCCCC5)CC[C@]4(C)[C@H]3C[C@H](OC(=O)C[N+]3(C)CCCCC3)[C@]12C.[Cl-].[Cl-].[Cl-],> 512,6.25,512,> 200,> 40,> 40,25,> 200,Non-toxic
COC(=O)CC[C@@H](C)[C@H]1CC[C@H]2[C@@H]3CC[C@@H]4C[C@H](OC(=O)C[N+]5(C)CCCCC5)CC[C@]4(C)[C@H]3C[C@H](OC(=O)C[N+]3(C)CCCCC3)[C@]12C,> 512,0.78,128,50,> 160,> 160,6.25,77,–
COC(=O)CC[C@@H](C)[C@H]1CC[C@H]2[C@@H]3[C@H](OC(=O)CN)C[C@@H]4C[C@H](OC(=O)CN)CC[C@]4(C)[C@H]3CC[C@]12C,64,> 50,128,14.8,< 20,< 20,> 50,13.7,–
COC(=O)CC[C@@H](C)[C@H]1CC[C@H]2[C@@H]3CC[C@@H]4C[C@H](OC(=O)C[n+]5ccccc5)CC[C@]4(C)[C@H]3CC[C@]12C,> 512,25,> 512,68,< 20,< 20,> 50,89,–
COC(=O)CC[C@@H](C)[C@H]1CC[C@H]2[C@@H]3[C@H](OC(=O)C[N+](C)(C)C)C[C@@H]4C[C@H](OC(=O)C[N+](C)(C)C)CC[C@]4(C)[C@H]3CC[C@]12C,256,3.12,512,144,> 80,> 80,12.5,142,–
COC(=O)CC[C@@H](C)[C@H]1CC[C@H]2[C@@H]3CC[C@@H]4C[C@H](OC(=O)CN)CC[C@]4(C)[C@H]3CC[C@]12C,> 512,> 50,> 512,24.6,< 20,< 20,> 50,14,–
C[C@H]1COc2c(N3CCN(C)CC3)c(F)cc3c(=O)c(C(=O)O)cn1c23 [LEVOFLOXACIN],–,0.58,–,–,–,–,0.78,–,–
COC(=O)CC[C@@H](C)[C@H]1CC[C@H]2[C@@H]3CC[C@@H]4C[C@H](OC(=O)C[n+]5ccccc5)CC[C@]4(C)[C@H]3C[C@H](OC(=O)C[n+]3ccccc3)[C@]12C,128,1.56,> 512,78,> 80,> 80,12.5,124,–
COC(=O)CC[C@@H](C)[C@H]1CC[C@H]2[C@@H]3CC[C@@H]4C[C@H](OC(=O)CN)CC[C@]4(C)[C@H]3C[C@H](OC(=O)CN)[C@]12C,16,> 50,64,14.7,< 20,< 20,> 50,14,–
C[C@H](CCC(=O)O)[C@H]1CC[C@H]2[C@@H]3[C@H](O)C[C@@H]4C[C@H](O)CC[C@]4(C)[C@H]3C[C@H](O)[C@]12C [CHOLIC ACID],–,–,–,–,–,–,–,–,Non-toxic
COC(=O)CC[C@@H](C)[C@H]1CC[C@H]2[C@@H]3[C@H](OC(=O)C[n+]4ccccc4)C[C@@H]4C[C@H](OC(=O)C[n+]5ccccc5)CC[C@]4(C)[C@H]3C[C@H](OC(=O)C[n+]3ccccc3)[C@]12C.[Cl-].[Cl-].[Cl-],> 512,3.12,> 512,> 200,> 26,> 26,37.5,> 200,Non-toxic
COC(=O)CC[C@@H](C)[C@H]1CC[C@H]2[C@@H]3[C@H](OC(=O)C[N+]4(C)CCCCC4)C[C@@H]4C[C@H](OC(=O)C[N+]5(C)CCCCC5)CC[C@]4(C)[C@H]3CC[C@]12C,128,1.56,256,79,> 80,> 80,12.5,164,–
COC(=O)CC[C@@H](C)[C@H]1CC[C@H]2[C@@H]3CC[C@@H]4C[C@H](OC(=O)C[N+](C)(C)C)CC[C@]4(C)[C@H]3C[C@H](OC(=O)C[N+](C)(C)C)[C@]12C,256,12.5,256,157,< 20,< 20,> 50,105,–
